# Like-named read-outs stand apart in the source and are kept apart here.
# Molecular target: T1, pS166-RIPK1 in human PBMC lysates (Homo sapiens, UniProt Q13546)
# T1 construct: Human PBMC are a primary cell type that express endogenous RIPK kinase; endogenous in cells; host or cells: human PBMC isolated from blood of healthy participants
# T1 sequence (Q13546 1-671): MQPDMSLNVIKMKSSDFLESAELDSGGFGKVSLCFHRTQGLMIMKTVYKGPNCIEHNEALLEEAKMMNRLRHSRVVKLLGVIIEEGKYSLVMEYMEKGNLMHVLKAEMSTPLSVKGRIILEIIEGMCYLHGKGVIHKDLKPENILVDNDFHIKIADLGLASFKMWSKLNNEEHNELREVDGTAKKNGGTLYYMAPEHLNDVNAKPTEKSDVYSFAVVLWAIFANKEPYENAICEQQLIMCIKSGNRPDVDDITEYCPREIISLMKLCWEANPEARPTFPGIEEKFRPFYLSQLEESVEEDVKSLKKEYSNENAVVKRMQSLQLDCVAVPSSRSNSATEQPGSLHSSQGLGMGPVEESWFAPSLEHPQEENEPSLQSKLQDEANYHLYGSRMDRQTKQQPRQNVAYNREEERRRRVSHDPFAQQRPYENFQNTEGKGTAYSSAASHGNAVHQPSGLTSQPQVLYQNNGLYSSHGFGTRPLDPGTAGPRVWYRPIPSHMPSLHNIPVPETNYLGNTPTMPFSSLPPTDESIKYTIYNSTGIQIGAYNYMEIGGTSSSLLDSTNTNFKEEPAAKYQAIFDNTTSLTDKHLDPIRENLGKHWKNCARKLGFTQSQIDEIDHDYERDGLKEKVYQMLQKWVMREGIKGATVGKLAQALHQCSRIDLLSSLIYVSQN
# Assay: Inhibition of pS166-RIPK1 in PBMC lysates (peripheral target engagement)
# Type: in vivo
# Conditions: for pS166-RIPK1 percent change from baseline: Day15-T24h
# Source text: Activity of RIPK1 when stimulated can be detected by an increase in autophosphorylation at serine 166 in the RIPK1 protein. Human PBMC are a primary cell type that express endogenous RIPK kinase. Therefore, the ability of Compound 1 to inhibit RIPK1 kinase activity, as measured by the inhibition of pS166-RIPK1 in prepared PBMC lysates isolated from blood samples, was investigated to assess the peripheral target engagement; pS166-RIPK1 levels in human PBMC lysates and percentage of change from baseline were calculated. In Part 1a study, six blood samples (at pre-dose, at 1, 3, 5, 8 hours on Day 1, and at 24 hours on Day 2) for pS166-RIPK1 level were collected per participant. In Part 2 study, blood samples were collected at timepoint (predose/baseline, D7 and D14 T0 (prior to dosing), at the followings timepoints at D14: T1h, T3H, T6H, T8h, then at D15/T24H and D16/T48H. Interquartile range (IQR: Q1-Q3) and geometric mean were added to the usual descriptive statistics.
# Levels of pS166-RIPK1 and percentage of change from baseline were summarized descriptively by dose level group and time point. PD population includes participants included in the safety population with no major or critical deviations related to IMP and/or pharmacodynamic (PD) measurements, for whom the PD data are considered sufficient and interpretable will be included in the pharmacodynamic population. Scatterplots were provided for pS166-RIPK1 data versus PK plasma concentration in the PK/PD population. For each participant, the percent change compared to their baseline was evaluated at multiple timepoints up to 24 hours in Part 1a and up to 48 hours in Part 2.
# The amount of phosphorylation at serine 166 in RIPK1 protein (pS166-RIPK1) was measured in PBMC lysates prepared from blood samples. Variability in baseline values between individuals was observed across the treatment groups. For each participant, the percent change compared to their baseline was evaluated at multiple timepoints. A negative value for percent change indicates an inhibition of phosphorylation of RIPK1 at-serine166 (pS166-RIPK1).
compound,measurement,setting,value
"CC(C)(C(=O)N1CCOc2c(C#N)cncc2C1)C(F)F [Compound 1, 4-(3,3-difluoro-2,2-dimethyl-propanoyl)-3,5-dihydro-2H-pyrido[3,4-f] [1,4]oxazepine-9-carbonitrile]",Median inhibition of pS166-RIPK1,"Part 1a 20 mg, 1 hr post dose",90.43%
same,"Median inhibition of pS166-RIPK1, peak","Part 1a 20 mg, 5 hrs",96.63%
same,"Median inhibition of pS166-RIPK1, maintained","Part 1a 20 mg, over 24 hours",greater than 94%
same,Peak median inhibition of pS166-RIPK1,"Part 1a 30 mg, 3 hr, one replicate",91.48%
same,Median inhibition of pS166-RIPK1,"Part 1a 30 mg, 24 hours post dose, one replicate",80.16%
same,Peak median inhibition of pS166-RIPK1,"Part 1a 40 mg, 1 hr post dose, 4 participants",86.69%
same,Median inhibition of pS166-RIPK1,"Part 1a, all dose groups (10, 20, 30, 40 mg), 1 hour up to 5 hours post dose",greater than 80%
same,pS166-RIPK1 percent change from baseline,"Part 2, 15 mg BID",−80.29%
same,pS166-RIPK1 percent change from baseline,"Part 2, 20 mg BID",−97.76%
same,Inhibition of pS166-RIPK1,"Part 2, all dose level groups (10 mg QD to 20 mg BID), Ctrough Day 7 up to 24 hours post-last dosing",~90%
same,Emax at 10 mg,"Part 2 Day 14, 10 mg QD, 6 hours post-last morning dose, n=5, read-out: Median inhibition of pS166-RIPK1, maximal effect",99%
same,Emax at 15 mg,"Part 2 Day 14, 15 mg BID, 6 hours post-last morning dose, n=7, read-out: Median inhibition of pS166-RIPK1, maximal effect",92.8%
same,Emax at 20 mg,"Part 2 Day 14, 20 mg BID, 8 hours post-last morning dose, n=3, read-out: Median inhibition of pS166-RIPK1, maximal effect",99.2%
same,Emax at 20 mg,"Part 2 Day 14, 20 mg QD, 6 hours post-last morning dose, n=4, read-out: Median inhibition of pS166-RIPK1, maximal effect",96.5%
same,EC90,in vivo in PBMC,38 nM
